Experiment [1] addresses T1, Stat3 (Homo sapiens, UniProt P40763). The experiment can be described thus: Stat3 SH2 domain affinity, fluorescence polarization. In kind it is binding. The conditions noted are these: for fold loss in affinity: relative to compound 21; for fold weaker / loss in affinity: relative to compound 28.
The target in experiment [2] is T1, Stat3. The conditions noted are these: cited from earlier work.
Setting [3] is: lead phosphopeptides, ref Coleman et al.[16].

“And” between values parts separate entries of the source, which are not always exact repeats. Equal entries are not always repeated. Where two headings read alike, the source gives them in different places. Square brackets hold non-standard residues; d marks the D form. Ends that are not written are not given here. * marks the point of attachment. pY = N[C@@H](Cc1ccc(OP(=O)(O)O)cc1)C(=O)O; pCinn = not defined here; NHBn = c1ccc(CN*)cc1 Bounds are passed on as bounds.

T1 sequence (P40763 whole entry, species assumed, the tested form may be a part): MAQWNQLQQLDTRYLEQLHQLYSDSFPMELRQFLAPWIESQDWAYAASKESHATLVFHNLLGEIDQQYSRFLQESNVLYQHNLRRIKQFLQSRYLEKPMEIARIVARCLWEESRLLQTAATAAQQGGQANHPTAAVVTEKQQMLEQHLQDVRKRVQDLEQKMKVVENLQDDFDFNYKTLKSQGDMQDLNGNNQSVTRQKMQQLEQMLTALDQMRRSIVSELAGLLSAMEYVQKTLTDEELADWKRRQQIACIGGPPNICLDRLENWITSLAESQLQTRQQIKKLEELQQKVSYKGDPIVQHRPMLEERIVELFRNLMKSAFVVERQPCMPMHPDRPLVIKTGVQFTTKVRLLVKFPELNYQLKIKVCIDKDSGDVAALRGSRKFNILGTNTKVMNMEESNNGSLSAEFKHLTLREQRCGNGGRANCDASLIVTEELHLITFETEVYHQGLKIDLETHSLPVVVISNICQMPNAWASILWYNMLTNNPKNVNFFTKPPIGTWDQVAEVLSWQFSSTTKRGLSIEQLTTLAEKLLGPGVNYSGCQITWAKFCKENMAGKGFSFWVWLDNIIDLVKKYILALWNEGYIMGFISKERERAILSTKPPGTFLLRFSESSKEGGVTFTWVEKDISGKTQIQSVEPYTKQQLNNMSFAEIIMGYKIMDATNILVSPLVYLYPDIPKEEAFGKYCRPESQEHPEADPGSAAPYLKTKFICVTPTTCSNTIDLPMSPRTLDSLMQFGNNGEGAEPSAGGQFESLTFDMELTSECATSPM

Take “7: XXX-Leu-Pro-Gln-Thr-NH2 with XXX = Ac-pTic; drawing shows XXX only [Compound 7]”: in the experiment with Stat3 [1] (fluorescence polarization), the IC50 (usually the concentration that gives 50% inhibition) is greater than 100000 nM. At Stat3 [1] (relative to Leu-Pro analogue 17), `NC(=O)CC[C@H](NC(=O)[C@@H]1CC[C@@H]2CC[C@H](NC(=O)/C=C/c3ccc(OP(=O)(O)O)cc3)C(=O)N21)C(=O)NCc1ccccc1` [Compound 18, pCinn-(3S,6S,9S)-ABN-Gln-NHBn] yielded a fold lower affinity of 4 fold. For the compound `O=C(O)CCCNC(=O)[C@@H]1Cc2cccc3c2N1C(=O)[C@@H](NC(=O)/C=C/c1ccc(OP(=O)(O)O)cc1)CC3` [Compound 24, pCinn-Haic-Gaba], at Stat3 [1], the “fold loss in affinity” value is on record as 5 fold. `NC(=O)CC[C@H](NC(=O)[C@@H]1Cc2cccc3c2N1C(=O)[C@@H](NC(=O)/C=C/c1ccc(OP(=O)(O)O)cc1)CC3)C(=O)O` [Compound 26, pCinn-Haic-Gln-OH]: the “fold loss in affinity” value on Stat3 [1] was 2 fold. Take `NC(=O)[C@@H]1Cc2cccc3c2N1C(=O)[C@@H](NC(=O)/C=C/c1ccc(OP(=O)(O)O)cc1)CC3` [Compound 31, pCinn-Haic-NH2]: the fold weaker at Stat3 [1] (relative to compound 24) amounted to 42 fold. In addition, at Stat3 [1], the “fold weaker / loss in affinity” value came to 150 fold. As for `C[C@H](NC(=O)[C@@H]1Cc2cccc3c2N1C(=O)[C@@H](NC(=O)/C=C/c1ccc(OP(=O)(O)O)cc1)CC3)C(N)=O` [Compound 32, pCinn-Haic-Ala-NH2], the “activity / affinity for Stat3 in words” value on Stat3 [1] was “micromolar range”. For the compound `C[S+]([O-])CC[C@H](NC(=O)[C@@H]1Cc2cccc3c2N1C(=O)[C@@H](NC(=O)/C=C/c1ccc(OP(=O)(O)O)cc1)CC3)C(N)=O` (stereo partly shown) [Compound 34, pCinn-Haic-Met(O)-NH2], the “fold weaker / loss in affinity” value on Stat3 [1] is given as roughly 10 fold. On to `CS(=O)(=O)CC[C@H](NC(=O)[C@@H]1Cc2cccc3c2N1C(=O)[C@@H](NC(=O)/C=C/c1ccc(OP(=O)(O)O)cc1)CC3)C(N)=O` [Compound 35, pCinn-Haic-Met(O2)-NH2], for which, at Stat3 [1], the “fold weaker / loss in affinity” value is roughly 10 fold. Consider “Ac-Tyr(PO3H2)-Leu-Pro-Gln-NHBn (Ac-[pY]LPQ-NHBn; SMILES CC(=O)N[C@@H](Cc1ccc(OP(=O)(O)O)cc1)C(=O)N[C@@H](CC(C)C)C(=O)N1CCC[C@H]1C(=O)N[C@@H](CCC(N)=O)C(=O)NCc1ccccc1) [Compound 4]”, for which the IC50 with Stat3 [2] (setting [3]) is 409 ± 15 nM. With “Ac-Tyr(PO3H2)-Leu-Pro-Gln-Thr-NH2 (Ac-[pY]LPQT-NH2; SMILES CC(=O)N[C@@H](Cc1ccc(OP(=O)(O)O)cc1)C(=O)N[C@@H](CC(C)C)C(=O)N1CCC[C@H]1C(=O)N[C@@H](CCC(N)=O)C(=O)N[C@H](C(N)=O)[C@@H](C)O) [Compound 2]”, in the experiment with Stat3 [2] (setting [3]), the IC50 is 740 nM and 739 nM. For the compound Ac-[pY]LPQ-NH2 [Compound 3], the IC50 at Stat3 [2] (setting [3]) is 856 ± 41 nM.

On to “pCinn-Leu-Pro-Gln-NHBn ([pCinn]LPQ-NHBn; reading uncertain; also: printed as pCinn-Leu-Pro-Gln-NHBn) [Compound 17]”, for which the IC50 with Stat3 [2] (ref [69]) was 138 ± 8 nM.

These data come from PMC2735258 (Journal of medicinal chemistry, 2009).
